What all share (type): cell-based
The test system of assay [1] is LNCaP cell cycle. Put plainly: Cell cycle measurement by DNA content flow cytometry, LNCaP. To be noted: LNCaP cells, exposed 24-48 hours. The method, then: (§1) The cells were washed with phosphate buffered saline (PBS) and fixed in ice-cold 70% ethanol. Aliquots of fixed cells were rehydrated in PBS and stained with 1.0 microgram/milliliter DAPI (4,6-diamidino-2-phenylindole from Eastman Kodak, Rochester, NY), and dissolved in 10 millimolar piperazine-NN-bis-2-ethane-sulfonic acid buffer (Calbiochem, La Jolla, CA) containing 100 millimolar NaCl, 2mM MgCl2 and 0,1% Triton X-100 (Sigma) at pH 6.8 as previously described by Halicka et al. (H. D. Halicka, B. Ardelt, G. Juan, A. Mittelman, S. Chen, F. Traganos and Z. Darzynkiewicz, "Apoptosis and Cell Cycle Effects Induced by Extracts of the Chinese Herbal Preparation of PC SPES", International J. of Oncology (1997), 11: 437-448).
(§2) The cellular DNA content was measured with an ELITE ESP flow cytometer (Coulter Inc., Fl.) using UV laser illumination. The multicycle program was used to deconvolute the DNA frequency histograms to estimate the frequency of cells in different phases of the cell cycle.
(In general: A flow cytometer gives signals particle by particle.)

Assay [2] deals with DU-145 cell cycle. Put plainly: Cell cycle measurement by DNA content flow cytometry, DU-145. To be noted: DU-145 cells, protocol of Example 3. The method, then:
as §1, §2
A prolongation in the G2M phase leads to the suppression of DU-145 cell proliferation.

The target in assay [3] is T1, hERα (Homo sapiens, UniProt P03372).
T1 construct: expressed in transfected cells; host or cells: HEK 293 cells (ATCC CRL-1573)
Put plainly: ERE-LUC reporter gene activation in transfected HEK 293 cells, ER alpha. To be noted: 0 to 9 µg/ml, 20 hours. The source says: (§3) HEK 293 cells (ATCC CRL-1573) were transfected with an expression vector for hERα and hERβ respectively, and an ERE-LUC reporter gene (plus a TK-LUC reporter for normalization) following the protocol of Yoon et al ("Differential activation of wild-type and variant forms of estrogen receptor α by synthetic and natural estrogenic compounds using a promoter containing three estrogen-responsive elements", J. Steroid Biochem. & Molecular Biology (2000), 28: pages 25-32).
In general terms: A reporter such as luciferase makes a cellular process visible.

For assay [4], the target named is T2, hERβ (Homo sapiens, UniProt Q92731).
T2 construct: expressed in transfected cells; host or cells: HEK 293 cells (ATCC CRL-1573)
Put plainly: ERE-LUC reporter gene activation in transfected HEK 293 cells, ER beta. To be noted: 0 to 9 µg/ml, 20 hours.
Text: as §3

SMILES strings stand for the structures.

T1 sequence (P03372 whole entry): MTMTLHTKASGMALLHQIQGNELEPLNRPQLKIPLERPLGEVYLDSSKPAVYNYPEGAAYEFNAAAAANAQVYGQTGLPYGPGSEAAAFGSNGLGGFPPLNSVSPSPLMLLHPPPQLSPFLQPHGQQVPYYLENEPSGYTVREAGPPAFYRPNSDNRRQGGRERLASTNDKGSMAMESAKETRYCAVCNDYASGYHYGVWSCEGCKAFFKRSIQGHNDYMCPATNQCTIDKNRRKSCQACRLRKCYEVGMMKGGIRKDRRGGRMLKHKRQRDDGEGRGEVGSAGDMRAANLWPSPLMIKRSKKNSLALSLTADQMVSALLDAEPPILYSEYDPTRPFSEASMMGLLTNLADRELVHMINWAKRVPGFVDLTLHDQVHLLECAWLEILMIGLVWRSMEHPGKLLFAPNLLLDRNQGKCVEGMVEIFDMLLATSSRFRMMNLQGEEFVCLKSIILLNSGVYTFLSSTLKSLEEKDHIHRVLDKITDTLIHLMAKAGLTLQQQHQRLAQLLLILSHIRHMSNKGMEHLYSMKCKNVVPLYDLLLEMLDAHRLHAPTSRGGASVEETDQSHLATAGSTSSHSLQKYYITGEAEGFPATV
T2 sequence (Q92731 whole entry): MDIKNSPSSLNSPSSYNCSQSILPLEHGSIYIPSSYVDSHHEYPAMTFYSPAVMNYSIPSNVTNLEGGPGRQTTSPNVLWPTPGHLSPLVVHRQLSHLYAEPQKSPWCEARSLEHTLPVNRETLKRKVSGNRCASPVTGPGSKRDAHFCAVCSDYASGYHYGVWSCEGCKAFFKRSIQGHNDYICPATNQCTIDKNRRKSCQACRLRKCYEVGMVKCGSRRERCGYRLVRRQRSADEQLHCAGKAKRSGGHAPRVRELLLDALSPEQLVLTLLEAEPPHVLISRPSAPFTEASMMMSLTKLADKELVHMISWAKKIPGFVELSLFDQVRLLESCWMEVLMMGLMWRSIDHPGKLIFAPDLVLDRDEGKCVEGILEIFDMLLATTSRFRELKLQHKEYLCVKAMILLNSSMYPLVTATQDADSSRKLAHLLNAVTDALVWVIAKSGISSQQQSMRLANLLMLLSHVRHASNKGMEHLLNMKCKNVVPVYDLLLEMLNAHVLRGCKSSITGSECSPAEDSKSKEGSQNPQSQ

Consider `COc1c(O)cc(O)c2c(=O)cc(-c3ccccc3)oc12` [Wogonin, 5,7-dihydroxy-8-methoxy-flavone], for which the “effect on G1, S, and G2M phases of the LNCaP cell cycle” value in assay [1] is on record as “induced a G1 phase arrest”. Moreover, the “effect on the DU-145 cell cycle” value in assay [2] was “prolonged the G2M phase”. Moreover, the “ERα-Luc reporter gene activation” value in assay [3] is “activated”. Also, the “ERβ-Luc reporter gene activation” value in assay [4] is listed as “activated”.
Regarding `O=C(/C=C/c1ccc(O)cc1)c1ccc(O)cc1O` [isoliquiritigenin, 2',4,4'-trihydroxychalcone], the “effect on G1, S, and G2M phases of the LNCaP cell cycle” value in assay [1] is recorded as “induced a G2M phase arrest”. In addition, in assay [3], the “ERα-Luc reporter gene activation” value is given as “activated”. Further, the “ERβ-Luc reporter gene activation” value in assay [4] was “activated”.

The values above are taken from patent EP1808172A2, “Botanical extract compositions and methods of use” (The Medical Research and Education Trust, priority 2002, dated 2003).
